What was measured:
Type in all cases: cell-based, mouse
[1] = system: α7 integrin (LacZ reporter in α7βgal+/− myoblasts); assay: Myoblast α7+/LacZ integrin FDG assay (Burkin assay in myoblasts, 96-well); conditions: 96-well; for Burkin Assay in Myoblasts, value relative to DMSO: SU9516 analogs, N=3-6; for Burkin Assay in Myoblasts, signal relative to DMSO: α7+/LacZ myoblasts
[2] = system: α7 integrin (LacZ reporter in α7+/LacZ myotubes); assay: Myotube α7 integrin FDG assay (Burkin assay in myotubes, 96-well); conditions: for Burkin Assay in Myotubes, value relative to DMSO: SU9516 analogs, 96-well, N=3-6
[3] = system: β-galactosidase in CMV-LacZ C2C12 myoblasts; assay: CMV-LacZ secondary screen in C2C12 myoblasts (β-Gal stabilizing assay); conditions: for CMV-LACZ in Myoblasts, value relative to DMSO: SU9516 analogs, C2C12 CMV-LacZ, N=2; for CMV-LACZ in Myoblasts (β-galactosidase activity relative to DMSO): CMV-LacZ C2C12 myoblasts
Summary of the method: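 Stable CMV-LacZ C2C12 clone; six-point curve 0.5–40 μM; duplicates.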

[4] = system: β-galactosidase in CMV-LacZ C2C12 myotubes; assay: CMV-LacZ secondary screen in C2C12 myotubes (β-Gal stabilizing assay); conditions: for CMV-LACZ in Myotubes, value relative to DMSO: SU9516 analogs, C2C12 CMV-LacZ, N=2; for CMV-LACZ in Myotubes, signal relative to DMSO: C2C12 CMV-LacZ myotubes, fold relative to DMSO
Summary of the method: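 A secondary screen identifies compounds that stabilize β-gal independently of the native promoter, using CMV-LacZ C2C12 cells. Curves span 0.5–40 μM at six levels, in duplicate.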

Compound: Cc1ccccc1/C=C1\C(=O)Nc2ccc(F)cc21 [MLS001197838-01]
- Burkin Assay in Myoblasts, value relative to DMSO ([1]; 0.5 uM): 1.256
- Burkin Assay in Myoblasts, value relative to DMSO ([1]; 1 uM): 1.198
- Burkin Assay in Myoblasts, value relative to DMSO ([1]; 5 uM): 1.053
- Burkin Assay in Myoblasts, value relative to DMSO ([1]; 10 uM): 1.048
- Burkin Assay in Myoblasts, value relative to DMSO ([1]; 20 uM): 0.8911
- Burkin Assay in Myoblasts, value relative to DMSO ([1]; 40 uM): 0.8648
- Burkin Assay in Myotubes, value relative to DMSO ([2]; 0.5 uM): 1.009
- Burkin Assay in Myotubes, value relative to DMSO ([2]; 1 uM): 0.981
- Burkin Assay in Myotubes, value relative to DMSO ([2]; 5 uM): 1.004
- Burkin Assay in Myotubes, value relative to DMSO ([2]; 10 uM): 1.091
- Burkin Assay in Myotubes, value relative to DMSO ([2]; 20 uM): 0.8699
- Burkin Assay in Myotubes, value relative to DMSO ([2]; 40 uM): 0.9981
- CMV-LACZ in Myoblasts, value relative to DMSO ([3]; 0.5 uM): 0.7904
- CMV-LACZ in Myoblasts, value relative to DMSO ([3]; 1 uM): 0.9954
- CMV-LACZ in Myoblasts, value relative to DMSO ([3]; 5 uM): 1.0010
- CMV-LACZ in Myoblasts, value relative to DMSO ([3]; 10 uM): 1.1118
- CMV-LACZ in Myoblasts, value relative to DMSO ([3]; 20 uM): 1.1615
- CMV-LACZ in Myoblasts, value relative to DMSO ([3]; 40 uM): 0.9437
- CMV-LACZ in Myotubes, value relative to DMSO ([4]; 0.5 uM): 1.0305
- CMV-LACZ in Myotubes, value relative to DMSO ([4]; 1 uM): 1.0038
- CMV-LACZ in Myotubes, value relative to DMSO ([4]; 5 uM): 0.9701
- CMV-LACZ in Myotubes, value relative to DMSO ([4]; 10 uM): 1.1637
- CMV-LACZ in Myotubes, value relative to DMSO ([4]; 20 uM): 0.8547
- CMV-LACZ in Myotubes, value relative to DMSO ([4]; 40 uM): 1.0063

Compound: O=C(NCCc1ccc(Cl)cc1)C1CCCO1 (stereo not drawn) [MLS001198271-01]
- Burkin Assay in Myoblasts, signal relative to DMSO ([1]; 0.5 uM): 1.034
- Burkin Assay in Myoblasts, signal relative to DMSO ([1]; 1 uM): 1
- Burkin Assay in Myoblasts, signal relative to DMSO ([1]; 5 uM): 1.292
- Burkin Assay in Myoblasts, signal relative to DMSO ([1]; 10 uM): 1.034
- Burkin Assay in Myoblasts, signal relative to DMSO ([1]; 20 uM): 1.088
- Burkin Assay in Myoblasts, signal relative to DMSO ([1]; 40 uM): 1.0038
- Burkin Assay in Myotubes, α7 integrin LacZ reporter signal relative to DMSO ([2]; 0.5 uM): 1.0083
- Burkin Assay in Myotubes, α7 integrin LacZ reporter signal relative to DMSO ([2]; 1 uM): 0.9334
- Burkin Assay in Myotubes, α7 integrin LacZ reporter signal relative to DMSO ([2]; 5 uM): 1.113
- Burkin Assay in Myotubes, α7 integrin LacZ reporter signal relative to DMSO ([2]; 10 uM): 0.9856
- Burkin Assay in Myotubes, α7 integrin LacZ reporter signal relative to DMSO ([2]; 20 uM): 0.9056
- Burkin Assay in Myotubes, α7 integrin LacZ reporter signal relative to DMSO ([2]; 40 uM): 0.8217
- CMV-LACZ in Myoblasts (β-galactosidase activity relative to DMSO) ([3]; 0.5 uM): 1.0204
- CMV-LACZ in Myoblasts (β-galactosidase activity relative to DMSO) ([3]; 1 uM): 1.0883
- CMV-LACZ in Myoblasts (β-galactosidase activity relative to DMSO) ([3]; 5 uM): 1.2105
- CMV-LACZ in Myoblasts (β-galactosidase activity relative to DMSO) ([3]; 10 uM): 0.8516
- CMV-LACZ in Myoblasts (β-galactosidase activity relative to DMSO) ([3]; 20 uM): 0.9944
- CMV-LACZ in Myoblasts (β-galactosidase activity relative to DMSO) ([3]; 40 uM): 1.2089
- CMV-LACZ in Myotubes, signal relative to DMSO ([4]; 0.5 uM): 0.9933
- CMV-LACZ in Myotubes, signal relative to DMSO ([4]; 1 uM): 1.0686
- CMV-LACZ in Myotubes, signal relative to DMSO ([4]; 5 uM): 0.9907
- CMV-LACZ in Myotubes, signal relative to DMSO ([4]; 10 uM): 0.9957
- CMV-LACZ in Myotubes, signal relative to DMSO ([4]; 20 uM): 1.1053
- CMV-LACZ in Myotubes, signal relative to DMSO ([4]; 40 uM): 1.0053

Compound: Cc1[nH]c(=O)[nH]c(=O)c1S(=O)(=O)Nc1ccc(F)cc1Cl [MLS001200149-01]
- Burkin Assay in Myoblasts, signal relative to DMSO ([1]; 0.5 uM): 1.039
- Burkin Assay in Myoblasts, signal relative to DMSO ([1]; 1 uM): 1.156
- Burkin Assay in Myoblasts, signal relative to DMSO ([1]; 5 uM): 1.0782
- Burkin Assay in Myoblasts, signal relative to DMSO ([1]; 10 uM): 0.998
- Burkin Assay in Myoblasts, signal relative to DMSO ([1]; 20 uM): 1.021
- Burkin Assay in Myoblasts, signal relative to DMSO ([1]; 40 uM): 0.9876
- Burkin Assay in Myotubes, α7 integrin LacZ reporter signal relative to DMSO ([2]; 0.5 uM): 1.26
- Burkin Assay in Myotubes, α7 integrin LacZ reporter signal relative to DMSO ([2]; 1 uM): 1.072
- Burkin Assay in Myotubes, α7 integrin LacZ reporter signal relative to DMSO ([2]; 5 uM): 1.069
- Burkin Assay in Myotubes, α7 integrin LacZ reporter signal relative to DMSO ([2]; 10 uM): 1.094
- Burkin Assay in Myotubes, α7 integrin LacZ reporter signal relative to DMSO ([2]; 20 uM): 0.9286
- Burkin Assay in Myotubes, α7 integrin LacZ reporter signal relative to DMSO ([2]; 40 uM): 0.8363
- CMV-LACZ in Myoblasts (β-galactosidase activity relative to DMSO) ([3]; 0.5 uM): 1.1234
- CMV-LACZ in Myoblasts (β-galactosidase activity relative to DMSO) ([3]; 1 uM): 0.9203
- CMV-LACZ in Myoblasts (β-galactosidase activity relative to DMSO) ([3]; 5 uM): 0.9489
- CMV-LACZ in Myoblasts (β-galactosidase activity relative to DMSO) ([3]; 10 uM): 1.0523
- CMV-LACZ in Myoblasts (β-galactosidase activity relative to DMSO) ([3]; 20 uM): 0.9363
- CMV-LACZ in Myoblasts (β-galactosidase activity relative to DMSO) ([3]; 40 uM): 1.1552
- CMV-LACZ in Myotubes, signal relative to DMSO ([4]; 0.5 uM): 0.8378
- CMV-LACZ in Myotubes, signal relative to DMSO ([4]; 1 uM): 0.9933
- CMV-LACZ in Myotubes, signal relative to DMSO ([4]; 5 uM): 0.9974
- CMV-LACZ in Myotubes, signal relative to DMSO ([4]; 10 uM): 0.8176
- CMV-LACZ in Myotubes, signal relative to DMSO ([4]; 20 uM): 0.8318
- CMV-LACZ in Myotubes, signal relative to DMSO ([4]; 40 uM): 0.9424

Source: patent US9980943B2, “Methods of treating muscular dystrophy” (BOARD OF REGENTS OF THE NEVADA SYSTEM OF HIGHER EDUCATION, …, priority 2013, dated 2018)
